Measurements: US9730956B2 (priority 2014, dated 2017)

How the values were obtained:
T. mentagrophytes = assay: NORS antifungal effect on mycelial viability; assay type: cell-based, Trichophyton mentagrophytes; conditions: 30 minute exposure; 0.14% sodium nitrite (pH 6) or citric acid at pH 3.7 alone
T. rubrum = assay: NORS antifungal effect on mycelial viability; assay type: cell-based, Trichophyton rubrum; conditions: 30 minute exposure; 0.14% sodium nitrite (pH 6) or citric acid at pH 3.7 alone

Row | SMILES | effect of single NORS component on mycelial viability (T. mentagrophytes) | effect of single NORS component on mycelial viability (T. rubrum)
1 | O=C(O)CC(O)(CC(=O)O)C(=O)O [citric acid] | Minimal to no effect | Minimal to no effect
2 | O=NO [sodium nitrite] | Minimal to no effect | Minimal to no effect
